{"source": "patent US9453242B2", "about": "“Method and culture medium for preparing mammalian ovum or embryo in which zona pellucida has been thinned or eliminated, and method for fertilization using mammalian ovum prepared by same method” (NATIONAL UNIVERISTY CORPORATION KUMAMOTO UNIVERSITY, priority 2010, dated 2016)", "key": {"[1]": {"tested_on": "mouse frozen unfertilized ovums", "method": "According to an ordinary method, mouse frozen unfertilized ovums were prepared using 8-week old female mice."}, "[2]": {"tested_on": "zona pellucida of a mouse unfertilized ovum", "assay": "Swelling of zona pellucida (area in zona pellucida) of unfertilized ovum", "type": "cell-based", "details": "37° C., 6 hours", "method": "Further, the influence of glutathione on swelling of zona pellucida was confirmed. […] Preparation of ovum” were treated with HTF culture media containing glutathione at various concentration at 37° C. for 6 hours, then, the area in zona pellucida was photographed under a microscope and measured by an image analysis software. The conditions of zona pellucida at glutathione concentrations of 0 mM, 1 mM, 2 mM and 10 mM were observed by an invert microscope.\nThe influence of other reducing agents (DTT, ascorbic acid (VC) and epicatechin (EC)) exerted on thinning and swelling of zona pellucida was confirmed in the same manner as in Example 2. The extent of swelling of the zona pellucida of an unfertilized ovum by the concentration of each reducing agent was photographed under a microscope, and determined according to the following formula. % Relative area in ZP=(area of zona pellucida in each experiment/area of zona pellucida at 0 mM)×100"}, "[3]": {"tested_on": "zona pellucida-eliminated ovum", "details": "frozen C57BL/6 sperms"}, "[4]": {"method": "(§1) Mouse fresh unfertilized ovums in which cumulus cells had been removed prepared according to the above-described “1. Preparation of oocyte” were prepared, then, 10 μl of an HTF culture medium containing glutathione at various concentrations (5, 10, 25, 50, 100, 200 and 300 mM) was dropped onto the bottom of a petri dish, and 20 ovums were inserted into this, and the time until elimination of zona pellucida was measured."}, "[5]": {"tested_on": "frozen sperms of C57BL/6J mice", "assay": "In vitro fertilization after sperm pre-incubation with MBCD and/or glutathione", "type": "cell-based, mouse", "details": "for number of 2-cell stage embryo(%) / number of 2-cell stage embryo: sperm pre-incubation MBCD −", "method": "A sperm suspension is pre-incubated in 90 μl of a TYH culture medium at 37° C. for 30 minutes, and under a stereomicroscope, sperms showing motility are collected, avoiding nonmotile sperms, and used for fertilization. The pre-incubated sperm suspension (10 μl) is added to 90 μl of an HTF culture medium (±glutathione) into which cumulus-oocyte complexes (COCs) have been previously introduced (insemination), and these are co-incubated in an incubator for 5 to 6 hours (37° C., 5% CO2), thereby performing fertilization. Thereafter, the ovum is washed with drops of new HTF, and the ovum is observed. Those judged to parthenogenetic (only one pronucleus is recognized in ooplasm) are excluded, and on the following day (24 hours after insemination), only 2-cell stage embryos are selected, and fertilization rate is determined according to the following formula. In vitro fertilization rate (%)=(number of 2-cell stage embryo)/(number of 2-cell stage embryo+number of unfertilized ovum)×100\nThe TYH culture medium used for pre-incubation of sperms was prepared according to the above-described composition excepting that polyvinyl alcohol (1.0 mg/ml, available from SIGMA) was used instead of bovine serum albumin, and methyl-β-cyclodextrin (0.75 mM, available from SIGMA) was added. Further, the concentration of glutathione in the TYH culture medium was 1 mM, preparation was carried out in the same manner as in Example 1, and glutathione was added to the TYH culture medium directly before use. The influence on fertilization rate was compared among those containing methyl-β-cyclodextrin, those containing glutathione and those containing both compounds.\nFertilization was conducted with 90 μl of an HTF culture medium (in the case of addition of glutathione, the concentration was 1 mM) containing cumulus-oocyte complexes (COCs), in the same manner as in Example 1 (IVF/glutathione in table). As the sperm, frozen sperms of C57BL/6J mice were used, and processed according to FIG. 1. Thawed sperms were pre-incubated in a TYH culture medium (±glutathione, ±methyl-β-cyclodextrin) at 37° C. for 30 minutes, and sperms showing motility were collected and used for fertilization. The experiment was conducted five times."}, "[6]": {"tested_on": "zona pellucida of mouse fresh unfertilized ovums", "method": "Mouse fresh unfertilized ovums in which cumulus cells had been removed prepared according to the above-described “1. Preparation of ovum” were prepared. The ovums were treated with an HTF culture medium containing glutathione at a concentration of 100 mM (30.7 mg/ml) at 20° C. for 90 seconds. The operation conducted is explained referring to FIG. 7. Onto the bottom of a petri dish, 10 μl of a glutathione-containing HTF culture medium was dropped, and 10 embryos were inserted into this. […] After confirmation of disappearance of zona pellucida, the embryos were immediately diluted with 1000 μl of an HTF culture medium containing no glutathione, for avoiding damage on the embryos. Thereafter, the zona pellucida-eliminated embryos were transferred into a 100 μl drop of HTF, and further, transferred into a 100 μl drop of HTF twice, thus continuing incubation.\nElimination of the zona pellucida of an unfertilized ovum was conducted in the same manner as in Example 4 excepting use of an HTF culture medium having a glutathione concentration of 50 mM (15.4 mg/ml).\nas §1"}, "[7]": {"tested_on": "2-cell stage embryos transplanted into female mice", "details": "fertilization and incubation in HTF with 1 mM glutathione; frozen C57BL/6J sperms", "quoted_text": "As the receptive female, ICR mice are used, and on the day before transplantation, external genitals are observed and those in the proestrus stage are selected and allowed to live together with vasoligated males. On the following day, those showing vaginal plug are used as the receptive female (on day 1 of pseudopregnancy). The skin and abdominal wall of the anesthetized receptive female are incised, and part of ovary, oviduct and uterus is exposed to the outside of the body through the incised portion, and fat adhered to ovary is fixed by a clamp. A 200 μl drop for transplantation is produced at the center of a dish, and embryos to be transplanted (20/individual) are transferred into the drop for transplantation. Next, 10 embryos are sucked together with a small amount of an incubation solution into a transplantation capillary. About ½ to ⅔ of the circumference of oviduct is incised, and the capillary containing embryos is inserted through the incised portion toward ampulla of oviduct and embryos are transplanted. Also into the opposite oviduct, embryos are transplanted by the same operation procedure.\nThe offspring rate (implanting rate) after embryo transplantation is determined according to the following formula. Offspring development rate (%)=(number of offspring)/(number of transplanted embryo)×100 […]"}, "[8]": {"tested_on": "mouse embryo in the early stages of development (8-cell stage embryo)", "details": "glutathione 100 mM, 20° C., 90 seconds", "from_the_text": "The zona pellucida of a mouse embryo in the early stages of development (8-cell stage embryo) used for production of a genetically modified mouse was eliminated."}, "[9]": {"details": "freeze-thawed ovums, zona pellucida eliminated with 100 mM glutathione"}, "[10]": {"details": "glutathione 100 mM (30.7 mg/ml), 20° C."}}, "note": "Like-named read-outs stand apart in the source and are kept apart here.", "data": [{"smiles": "N[C@@H](CCC(=O)N[C@@H](CS)C(=O)NCC(=O)O)C(=O)O", "note": "[glutathione, reduced glutathione]", "values": [{"measurement": "fertilization rate", "setting": "[1]; [9]", "result": 25, "unit": "%"}, {"measurement": "fertilization rate (fertilized/total)", "setting": "[1]; [9]", "result": "125/492"}, {"measurement": "condition of zona pellucida of freeze-thawed unfertilized ovum", "setting": "[1]; glutathione 100 mM, 20° C., 90 seconds", "result": "the zona pellucida of a freeze-thawed unfertilized ovum was eliminated"}, {"measurement": "glutathione concentration at which swelling of zona pellucida was recognized remarkably", "setting": "[2]", "result": "≥ 2", "unit": "mM"}, {"measurement": "swelling of zona pellucida", "setting": "[2]; HTF with glutathione at various concentration", "result": "swelling of zona pellucida was confirmed depending on the glutathione concentration"}, {"measurement": "fertilization and development of zona pellucida-eliminated ovum", "setting": "[3]; glutathione 100 mM pre-treatment", "result": "fertilization occurred and the development of an ovum (ovum division) was confirmed"}, {"measurement": "embryos developed to the blastocyst stage", "setting": "[3]; of 70 zona pellucida-eliminated embryos (glutathione 100 mM)", "result": 66}, {"measurement": "pH", "setting": "[4]; HTF culture medium with glutathione 5 mM", "result": 7.3}, {"measurement": "pH", "setting": "[4]; HTF culture medium with glutathione 10 mM", "result": 7.4}, {"measurement": "pH", "setting": "[4]; HTF culture medium with glutathione 25 mM", "result": 6.1}, {"measurement": "pH", "setting": "[4]; HTF culture medium with glutathione 50 mM", "result": 4.0}, {"measurement": "pH", "setting": "[4]; HTF culture medium with glutathione 100 mM", "result": 3.5}, {"measurement": "pH", "setting": "[4]; HTF culture medium with glutathione 200 mM", "result": 3.1}, {"measurement": "pH", "setting": "[4]; HTF culture medium with glutathione 300 mM", "result": 3.1}, {"measurement": "effect of treating unfertilized ovums on fertilization rate", "setting": "[5]; glutathione 1 mM in IVF medium", "result": "remarkable improvement in fertilization rate"}, {"measurement": "number of 2-cell stage embryo(%)", "setting": "[5]; glutathione + (1 mM), IVF glutathione −", "result": 15, "unit": "%"}, {"measurement": "number of 2-cell stage embryo", "setting": "[5]; glutathione + (1 mM), IVF glutathione −, 344 oocytes", "result": 53}, {"measurement": "number of 2-cell stage embryo(%)", "setting": "[5]; glutathione +, IVF glutathione +", "result": 38, "unit": "%"}, {"measurement": "number of 2-cell stage embryo", "setting": "[5]; glutathione +, IVF glutathione +, 371 oocytes", "result": 140}, {"measurement": "number of 2-cell stage embryo(%)", "setting": "[5]; glutathione −, IVF glutathione + (1 mM)", "result": 36, "unit": "%"}, {"measurement": "number of 2-cell stage embryo", "setting": "[5]; glutathione −, IVF glutathione + (1 mM), 381 oocytes", "result": 136}, {"measurement": "effect of sperm pre-incubation on fertilization rate", "setting": "[5]; sperms pre-incubated with 1 mM glutathione or 0.75 mM MBCD, 37° C., 30 minutes", "result": "improvement in fertilization rate was not observed"}, {"measurement": "glutathione concentration at which zona pellucida was eliminated", "setting": "[6]", "result": "≥ 50", "unit": "mM"}, {"measurement": "condition of zona pellucida", "setting": "[6]; glutathione 5 mM in HTF", "result": "thinning"}, {"measurement": "condition of zona pellucida", "setting": "[6]; glutathione 10 mM in HTF", "result": "thinning"}, {"measurement": "condition of zona pellucida", "setting": "[6]; glutathione 25 mM in HTF", "result": "thinning"}, {"measurement": "condition of zona pellucida", "setting": "[6]; glutathione 50 mM in HTF", "result": "elimination"}, {"measurement": "time (second) necessary for lysis of zona pellucida", "setting": "[6]; glutathione 50 mM in HTF", "result": "<1,500 second"}, {"measurement": "zona pellucida-eliminated embryos produced", "setting": "[6]; glutathione 50 mM, using 20 embryos, 2 experiments", "result": 20}, {"measurement": "time after which zona pellucida began to become thin (swell)", "setting": "[6]; [10]", "result": 30, "unit": "s"}, {"measurement": "time after which zona pellucida disappeared completely", "setting": "[6]; [10]", "result": 90, "unit": "s"}, {"measurement": "condition of zona pellucida", "setting": "[6]; glutathione 100 mM in HTF", "result": "elimination"}, {"measurement": "time (second) necessary for lysis of zona pellucida", "setting": "[6]; glutathione 100 mM in HTF", "result": "<60", "unit": "s"}, {"measurement": "zona pellucida-eliminated embryos produced", "setting": "[6]; glutathione 100 mM, using 70 embryos, 10 experiments", "result": 70}, {"measurement": "condition of zona pellucida", "setting": "[6]; glutathione 200 mM in HTF", "result": "elimination"}, {"measurement": "time (second) necessary for lysis of zona pellucida", "setting": "[6]; glutathione 200 mM in HTF", "result": "<50", "unit": "s"}, {"measurement": "condition of zona pellucida", "setting": "[6]; glutathione 300 mM in HTF", "result": "elimination"}, {"measurement": "time (second) necessary for lysis of zona pellucida", "setting": "[6]; glutathione 300 mM in HTF", "result": "<10", "unit": "s"}, {"measurement": "offspring development rate", "setting": "[7]", "result": 53.8, "unit": "%"}, {"measurement": "offspring development rate (offspring/transplanted embryos)", "setting": "[7]", "result": "43/80"}, {"measurement": "elimination of zona pellucida of 8-cell stage embryo", "setting": "[8]", "result": "elimination of zona pellucida from a 8-cell stage embryo"}]}]}
